# Experimental data published in BindingDB's records for doi:10.7270/Q2251GJ9 (The Scripps Research Institute Molecular Screening Center, 2007).
# Target: Sphingosine 1-phosphate receptor 1 (Homo sapiens, UniProt P21453)
# Assay: direct activation of human S1P1 – cell-based, agonist mode, 60K MLSMR set, dose response (AID 468)
# [1] = inactive by the depositor's call
# Sequence of Sphingosine 1-phosphate receptor 1 (P21453 whole entry): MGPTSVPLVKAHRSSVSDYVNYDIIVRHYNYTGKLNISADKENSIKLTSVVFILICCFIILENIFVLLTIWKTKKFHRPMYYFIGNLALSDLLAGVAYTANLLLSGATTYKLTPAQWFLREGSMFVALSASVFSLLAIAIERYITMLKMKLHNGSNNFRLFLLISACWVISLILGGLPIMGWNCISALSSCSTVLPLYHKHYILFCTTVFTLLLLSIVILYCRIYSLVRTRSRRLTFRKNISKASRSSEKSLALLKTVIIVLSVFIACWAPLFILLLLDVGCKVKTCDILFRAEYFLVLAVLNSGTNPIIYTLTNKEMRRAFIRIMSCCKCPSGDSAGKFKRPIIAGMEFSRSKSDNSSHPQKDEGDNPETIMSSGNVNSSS
SMILES,EC50 [1] [µM],EC50 [µM]
CCCn1c(CNc2ccc(Br)cc2)nc2ccccc21 [(4-bromophenyl)-[(1-propylbenzimidazol-2-yl)methyl]amine],12.1,
"COc1cccc2sc(Nc3nc(-c4ccccn4)cs3)nc12 [(4-methoxy-1,3-benzothiazol-2-yl)-[4-(2-pyridyl)thiazol-2-yl]amine]",,2.75
"CCN(CC)C(=O)Oc1ccc2c(=O)c(-c3ccccc3)coc2c1 [(4-oxidanylidene-3-phenyl-chromen-7-yl) N,N-diethylcarbamate]",37.2,
O=C(C1CCCN1S(=O)(=O)c1cccc2cccnc12)N1CCN(c2ccccc2)CC1 (configuration not stated) [(4-phenyl-1-piperazinyl)-[1-(8-quinolinylsulfonyl)-2-pyrrolidinyl]methanone],,> 95
"CCCc1ccc(Oc2c[nH]nc2-c2ccc(O)cc2O)cc1 [(4E)-3-hydroxy-4-[4-(4-propylphenoxy)-1,2-dihydropyrazol-3-ylidene]-1-cyclohexa-2,5-dienone]",,15.5
"COc1ccc(C(=O)C2C(=O)C(=O)N(CC3CCCO3)C2c2cccc(OC)c2)cc1 (configuration not stated) [(4Z)-4-[hydroxy-(4-methoxyphenyl)methylene]-5-(3-methoxyphenyl)-1-(tetrahydrofurfuryl)pyrrolidine-2,3-quinone]",,> 95.1
"COc1ccc(CCNc2c(C)c(C)nc3ncnn23)cc1 [(5,6-Dimethyl-[1,2,4]triazolo[1,5-a]pyrimidin-7-yl)-[2-(4-methoxy-phenyl)-ethyl]-amine]",,3.12
CS(=O)(=O)n1nc(OC(=O)c2cccc3ccccc23)cc1N [(5-amino-1-methylsulfonylpyrazol-3-yl) naphthalene-1-carboxylate],,9.29
Cc1nn(C(=O)c2cccs2)c(N)c1-c1ccccc1 [(5-amino-3-methyl-4-phenyl-1-pyrazolyl)-thiophen-2-ylmethanone],,7.24
Cc1ccc(C(=O)c2cncc(Br)c2)cc1 [(5-bromanylpyridin-3-yl)-(4-methylphenyl)methanone],,9.76
O=C(c1cc(-c2ccccc2)on1)N1CCN(Cc2ccc3c(c2)OCO3)CC1 [(5-phenylisoxazol-3-yl)-(4-piperonylpiperazino)methanone],,> 30
"CCC(NCc1ccc2c(c1)OCO2)=C1C(=O)NC(=O)N(C2CCCCC2)C1=O [(5E)-5-[1-(1,3-benzodioxol-5-ylmethylamino)propylidene]-1-cyclohexyl-1,3-diazinane-2,4,6-trione]",,6.81
"CCc1c(C)nc2ncnn2c1NCCc1ccc(OC)cc1 [(6-Ethyl-5-methyl-[1,2,4]triazolo[1,5-a]pyrimidin-7-yl)-[2-(4-methoxy-phenyl)-ethyl]-amine]",,8.3
Brc1ccc2ncnc(Nc3ccc(N4CCOCC4)cc3)c2c1 [(6-bromoquinazolin-4-yl)-(4-morpholinophenyl)amine],,7.6
"Cn1cccc1C(=O)OCc1cc(Cl)cc2c1OCOC2 [(6-chloranyl-4H-1,3-benzodioxin-8-yl)methyl 1-methylpyrrole-2-carboxylate]",15.6,
"CCc1ccc2oc(-c3cc(N)cc(C)c3O)nc2c1 [(6E)-4-amino-6-(5-ethyl-3H-1,3-benzoxazol-2-ylidene)-2-methyl-1-cyclohexa-2,4-dienone]",,11.4
"CC(C)c1ccc2oc(-c3cc(N)ccc3O)nc2c1 [(6E)-4-amino-6-(5-isopropyl-3H-1,3-benzoxazol-2-ylidene)cyclohexa-2,4-dien-1-one]",,9.37
"C=C(C)COc1ccc(-c2nc(N)nc(C)c2Oc2ccccc2OC)c(O)c1 [(6E)-6-[2-amino-5-(2-methoxyphenoxy)-6-methyl-1H-pyrimidin-4-ylidene]-3-(2-methylallyloxy)cyclohexa-2,4-dien-1-one]",,3.8
"COc1ccc(-c2n[nH]cc2-c2ccc3c(c2)OCCO3)c(O)c1 [(6E)-6-[4-(2,3-dihydro-1,4-benzodioxin-6-yl)-1,2-dihydropyrazol-3-ylidene]-3-methoxycyclohexa-2,4-dien-1-one]",,0.986
CCc1ccc2c(COC(=O)c3n[nH]c4ccccc34)cc(=O)oc2c1 [(7-ethyl-2-oxochromen-4-yl)methyl 1H-indazole-3-carboxylate],10.6,
"CCOC(=O)CN(C(=O)CSc1nnc(-c2cccc(OC)c2)o1)c1ccc(F)cc1 [((4-Fluoro-phenyl)-{2-[5-(3-methoxy-phenyl)-[1,3,4]oxadiazol-2-ylsulfanyl]-acetyl}-amino)-acetic acid ethyl ester]",,3.17
"Cc1noc(/C=C/N(C)C)c1S(=O)(=O)N1CCc2ccccc21 [(E)-2-[4-(2,3-dihydroindol-1-ylsulfonyl)-3-methyl-1,2-oxazol-5-yl]-N,N-dimethyl-ethenamine]",95,
"CC(=N)C(C#N)C(=O)CSc1nc2cc(Cl)ccc2s1 (configuration not stated) [(E)-3-amino-2-[2-[(5-chloro-1,3-benzothiazol-2-yl)sulfanyl]acetyl]but-2-enenitrile]",,15.6

SMILES,EC50 [1] [µM],EC50 [µM]
"CC(=N)C(C#N)C(=O)CSc1nnc(SCc2ccc(Cl)cc2)s1 (configuration not stated) [(E)-3-amino-2-[2-[[5-[(4-chlorobenzyl)thio]-1,3,4-thiadiazol-2-yl]thio]acetyl]but-2-enenitrile]",,8.95
"Cc1noc(/C=C/N(C)C)c1S(=O)(=O)N1CCN(c2ccccc2)CC1 [(E)-N,N-dimethyl-2-[3-methyl-4-(4-phenylpiperazin-1-yl)sulfonyl-1,2-oxazol-5-yl]ethenamine]",,> 95
"O=S(=O)(C/C(=C/CO)S(=O)(=O)c1ccccc1)c1ccccc1 [(Z)-3,4-bis(benzenesulfonyl)but-2-en-1-ol]",,> 3
CC1=C(/C=C/C(C)=C/C=C/C(C)=C/C(=O)O)C(C)(C)CCC1 [ALL-TRANS-RETINOIC ACID],25.4,
"CC(=O)Nc1cc(OC(C)=O)c2nonc2c1OC(C)=O [Acetic acid 7-acetoxy-5-acetylamino-benzo[1,2,5]oxadiazol-4-yl ester]",,7.53
"CCN(C(=O)C1CCCCC1)c1nnc(-c2cccnc2)s1 [Cyclohexanecarboxylic acid ethyl-(5-pyridin-3-yl-[1,3,4]thiadiazol-2-yl)-amide]",,2.13
CC1Cc2cc(-c3csc(NC(=O)Cc4cccs4)n3)ccc2N1S(C)(=O)=O (configuration not stated) [MLS000027766],11.8,
COCCN(C(=O)c1ccccc1)c1nnc(-c2cccnc2)s1 [MLS000032523],,6.68
O=C(CCC(=O)N(Cc1ccco1)C(C(=O)NC1CCCC1)c1ccncc1)Nc1cccnc1 (configuration not stated) [MLS000033292],,> 95
CC(C)(C)NC(=O)CSc1ncnc2c1nnn2Cc1ccccc1Cl [MLS000034488],,9.4
Cc1ccccc1OCC(=O)Nc1ccc(N2CCN(C(=O)C(C)C)CC2)c(Cl)c1 [MLS000034491],16.8,
CCOC(=O)Nc1ccc2c(c1)N(C(=O)CCN(C)C)c1ccccc1S2 [MLS000038082],,33.9
CC(=O)c1sc(NC(=O)C2(F)C(F)(F)C(F)(F)C(F)(F)C(F)(F)C2(F)F)nc1C [MLS000040071],30.4,
CC(C)[C@H](NC(=O)OC(C)(C)C)c1nnc(SCC(=O)Nc2ccc(Br)cc2)o1 [MLS000040800],14.7,
Cc1ccc2[nH]c3c(NCc4ccco4)ncnc3c2c1 [MLS000040855],,9.9
CC(C)OCCCNc1ncnc2c1[nH]c1ccccc12 [MLS000041327],14,
CCCCOc1ncnc2c1[nH]c1ccccc12 [MLS000041483],,4.18
COc1ccc(CCNc2ncnc3c2oc2ccccc23)cc1OC [MLS000041708],,0.537
CCCC(=O)Nc1ccc2oc(-c3ccc(OC)c(Br)c3)nc2c1 [MLS000042482],,4.96
CCOc1ccccc1OCCCCCc1c(C)n[nH]c1C [MLS000043342],,1.56
Cc1cc(C(=O)Nc2sc(C)c(-c3ccc(F)cc3)c2C(N)=O)no1 [MLS000043467],,6.79
Cn1nc(CC(=O)Nc2ccc3c(c2)OCCO3)c2ccccc2c1=O [MLS000047020],,5.94
O=C(Nc1ccc(-c2noc(CCc3ccccc3)n2)cc1)c1cccnc1 [MLS000047253],,3.6

SMILES,EC50 [1] [µM],EC50 [µM]
COc1cccc(-c2nc(-c3ccc(NC(=O)c4cccnc4)cc3)no2)c1 [MLS000047254],26.1,
COc1ccc(-n2nc3ccc(NS(C)(=O)=O)cc3n2)cc1Cl [MLS000049114],,0.148
CC(=O)Nc1ccc(S(=O)(=O)N2CCN(CCCOc3cc(C)ccc3C)CC2)cc1 [MLS000050317],15.2,
N#C/C(=C/c1ccc(N2CCCCCC2)o1)c1ccc(F)cc1 [MLS000051438],22.4,
O=S(=O)(Nc1ccc2c(c1)OCCO2)c1ccc2oc3ccccc3c2c1 [MLS000051884],,7.68
CCN=c1scc(-c2ccc3c(c2)NC(=O)CO3)n1N=C1CCCC1 [MLS000054638],,8.6
CCOC(=O)c1c(C)[nH]c(C(=O)C(C)OC(=O)c2cccc(OCc3c(C)noc3C)c2)c1C (configuration not stated) [MLS000054923],,4.37
COc1cc(C(=O)N2CCN(S(=O)(=O)c3ccc(C)cc3)CC2)ccc1OCc1c(C)noc1C [MLS000056221],,> 95
CN(Cc1cccs1)c1ncnc2sccc12 [MLS000056228],13,
CC(=O)Nc1ccccc1OCC(=O)c1cc(C)n(Cc2cccs2)c1C [MLS000056239],,0.202
CCCn1c(NC(=O)c2cccc(S(=O)(=O)N3CCCC3)c2)nc2ccccc21 [MLS000057540],,8.82
c1ccc2c(c1)oc1c(NCc3ccc4c(c3)OCO4)ncnc12 [MLS000057790],,5.6
Cc1csc(NC(=O)c2nc(-c3ccccc3)n(-c3ccccc3)n2)n1 [MLS000058347],10.1,
CCCC(=O)Nc1ccc(-c2nc3cc(C)ccc3o2)cc1 [MLS000061826],,5.96
O=C(Nc1ccc(N2CCOCC2)c(Cl)c1)c1cccc(F)c1 [MLS000066209],,1.23
Cc1ccc2oc(-c3ccc(NC(=O)c4cccnc4)cc3)nc2c1 [MLS000068975],,3.05
COc1cccc(-c2csc(N3CCN(CC(=O)Nc4ccc5c(c4)OCO5)CC3)n2)c1 [MLS000070935],17,
CCN(C(=O)c1ccc(C(C)(C)C)cc1)c1nnc(Cn2nnc3ccccc32)s1 [MLS000072751],,1.49
O=C(Nc1nc(-c2ccc3c(c2)OCO3)cs1)c1ccncc1 [MLS000073104],,9.54
Cc1ccc2c(c1)N(CC(=O)Nc1ccc3c(c1)OCCO3)C(=O)CO2 [MLS000074457],,> 95
CCCN(C(=O)c1cccs1)c1nnc(-c2ccncc2)s1 [MLS000074637],,3.38
